Results on eight compounds are retold here after PubChem BioAssay (NCI).

Where “and” joins values, the source holds several entries; their conditions need not be identical. Equal entries are not always repeated.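 Results reflect a 48-hour exposure of cells in 96-well plates to compound at five concentrations. At the GI50, growth is halved. TGI is the concentration that stops growth completely.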

Some test systems named below: SK-MEL-28 melanoma; SF-539 CNS; M14 melanoma; NCI-H226 lung; HCC-2998 colon; MDA-MB-231 breast; UO-31 renal; HOP-62 NSCLC; SNB-75 CNS; IGROV1 ovarian.
What all share (experiment): growth of human tumour cells (NCI), 48 h

With `Cn1cc(C2=C(c3cn(CCCCCSC(=N)N)c4ccccc34)C(=O)NC2=O)c2ccccc21`, the GI50 in the assay on SK-MEL-28 melanoma was 3.55 µM; in the assay on SF-539 CNS, 3.51 µM; in the assay on M14 melanoma, 3.23 µM; in the assay on NCI-H226 lung it was 4.09 µM; with HCC-2998 colon, 3.56 µM; in the assay on MDA-MB-231 breast, 3.91 µM. In addition, the GI50 was 3.62 µM in the assay on UO-31 renal, 3.96 µM with HOP-62 NSCLC, 1.01 µM with SNB-75 CNS and 3.51 µM with IGROV1 ovarian. Further, the TGI with SK-MEL-28 melanoma was 7.17 µM; in the assay on SF-539 CNS, 6.77 µM; in the assay on M14 melanoma it was 6.87 µM; in the assay on NCI-H226 lung, 9.96 µM; with HCC-2998 colon it was 7.19 µM; in the assay with MDA-MB-231 breast, 7.49 µM. Moreover, the TGI with UO-31 renal worked out at 7.29 µM; with HOP-62 NSCLC, 7.59 µM; in the assay with SNB-75 CNS it was 4.36 µM; with IGROV1 ovarian, 7.93 µM.

As to `O=C(Nc1nc2ccccc2s1)Nc1ccc([N+](=O)[O-])cc1Cl`, the GI50 in the assay on SK-MEL-28 melanoma is 6.25 µM; with SF-539 CNS, 1.69 µM; with M14 melanoma it was 7.15 µM; with NCI-H226 lung it was 5.58 µM; in the assay with HCC-2998 colon it was 5.65 µM; in the assay with MDA-MB-231 breast it was 3.21 µM. Also, the GI50 is 2.24 µM in the assay on UO-31 renal, 7.61 µM in the assay on HOP-62 NSCLC, 1.87 µM with SNB-75 CNS and 4.71 µM in the assay on IGROV1 ovarian. Further, the TGI with SK-MEL-28 melanoma came out at 20.1 µM; in the assay with SF-539 CNS, 3.11 µM; in the assay with M14 melanoma, 20.7 µM; with NCI-H226 lung, 13.1 µM; in the assay on HCC-2998 colon, 25 µM; with MDA-MB-231 breast, 8.59 µM. For the same compound, the TGI came to 6.44 µM in the assay with UO-31 renal, 16.6 µM in the assay on HOP-62 NSCLC, 5.36 µM with SNB-75 CNS and 10.4 µM with IGROV1 ovarian.

Regarding `CC(=O)[O][Hg][c]1c(C)c(C)cc(C)c1C`, the GI50 was 1.5 µM in the assay with SK-MEL-28 melanoma; 1.51 µM with SF-539 CNS; 1.36 µM in the assay on M14 melanoma; 2.05 µM with NCI-H226 lung; 1.37 µM in the assay on HCC-2998 colon; 0.87 µM in the assay with MDA-MB-231 breast. Also, the GI50 is 1.68 µM in the assay with UO-31 renal, 2.02 µM in the assay with HOP-62 NSCLC, 1.48 µM with SNB-75 CNS and 0.703 µM with IGROV1 ovarian. The TGI in the assay on SK-MEL-28 melanoma stood at 3.02 µM; in the assay with SF-539 CNS, 3.11 µM; in the assay with M14 melanoma, 2.88 µM; in the assay on NCI-H226 lung, 3.87 µM; with HCC-2998 colon, 2.72 µM; with MDA-MB-231 breast, 2.33 µM. Also, the TGI in the assay on UO-31 renal was 3.25 µM; in the assay with HOP-62 NSCLC, 4.05 µM; in the assay on SNB-75 CNS it was 2.99 µM; with IGROV1 ovarian, 2.37 µM.

As to `Cc1cc([N+](=O)[O-])c2ccccc2[n+]1[O-]`, the GI50 in the assay on SK-MEL-28 melanoma is 1.61 µM; in the assay on SF-539 CNS, 0.303 µM and 0.214 µM; in the assay with M14 melanoma, 0.239 µM and 0.259 µM; in the assay on NCI-H226 lung it was 0.571 µM and 0.927 µM; in the assay with HCC-2998 colon, 0.128 µM and 0.221 µM; in the assay on MDA-MB-231 breast, 0.218 µM and 0.202 µM. The GI50 was 0.215 µM and 0.22 µM with UO-31 renal; 0.188 µM and 0.25 µM in the assay with HOP-62 NSCLC; 0.421 µM and 0.165 µM in the assay on SNB-75 CNS; 2.58 µM and 3.26 µM with IGROV1 ovarian. The TGI in the assay with SK-MEL-28 melanoma is 3.9 µM and 4.54 µM; in the assay on SF-539 CNS, 1.2 µM and 0.867 µM; with M14 melanoma, 1.08 µM and 1.11 µM; in the assay with NCI-H226 lung it was 3.27 µM and 4.62 µM; in the assay with HCC-2998 colon it was 0.375 µM and 0.664 µM; with MDA-MB-231 breast it was 0.755 µM and 0.72 µM. The TGI in the assay on UO-31 renal is 0.681 µM and 0.903 µM; in the assay on HOP-62 NSCLC it was 0.835 µM and 1.13 µM; with SNB-75 CNS, 2.09 µM and 0.722 µM; in the assay with IGROV1 ovarian it was 11.9 µM and 10.3 µM.

For the compound `O=S(=O)(c1cnccc1N1CCN(CCO)CC1)N1CCCC1`, the TGI with SK-MEL-28 melanoma, in the assay with SF-539 CNS, in the assay with M14 melanoma, in the assay on NCI-H226 lung, in the assay with HCC-2998 colon and in the assay with MDA-MB-231 breast was > 100 µM each time. For the same compound, the TGI in the assay with UO-31 renal, with HOP-62 NSCLC, in the assay with SNB-75 CNS and in the assay on IGROV1 ovarian was > 100 µM throughout.

`NS(=O)(=O)OCCCCCCCOS(N)(=O)=O`: the TGI in the assay with SK-MEL-28 melanoma stood at 1680 µM; in the assay on SF-539 CNS, 645 µM; with M14 melanoma, 579 µM; with NCI-H226 lung it was 887 µM; in the assay with HCC-2998 colon, 718 µM; with MDA-MB-231 breast, 1030 µM. For the same compound, the TGI turned out to be 680 µM in the assay on UO-31 renal, 676 µM with HOP-62 NSCLC, 711 µM in the assay with SNB-75 CNS and 937 µM in the assay on IGROV1 ovarian.

As to `COc1nnc2ccc(N3CCC(c4ccc(OCCN5CCN(C)C(=O)[C@H]5C)cc4)CC3)nn12`, the GI50 in the assay with SK-MEL-28 melanoma is 0.522 µM; in the assay on SF-539 CNS, 0.116 µM; with M14 melanoma, 0.0934 µM; in the assay with NCI-H226 lung, 2.3 µM; in the assay on HCC-2998 colon it was 0.138 µM; in the assay with MDA-MB-231 breast, 0.0751 µM. Besides, the GI50 in the assay with UO-31 renal was 0.0396 µM; in the assay on HOP-62 NSCLC, 0.0875 µM; in the assay on SNB-75 CNS, 0.0144 µM; in the assay on IGROV1 ovarian, 0.0876 µM. In addition, the TGI with SK-MEL-28 melanoma was > 100 µM; in the assay on SF-539 CNS, > 100 µM; in the assay on M14 melanoma it was > 100 µM; in the assay on NCI-H226 lung it was > 67.7 µM; in the assay with HCC-2998 colon it was 16.1 µM; in the assay on MDA-MB-231 breast it was > 100 µM. The TGI in the assay on UO-31 renal is > 100 µM; with HOP-62 NSCLC it was > 100 µM; with SNB-75 CNS it was 73.7 µM; in the assay on IGROV1 ovarian, > 100 µM.

Turning to `COc1cc(-c2nn(-c3cccc(NC(=O)c4ccc(Cl)c(C(F)(F)F)c4)c3)cc2-c2ccncc2)ccc1Cl`, the GI50 with SK-MEL-28 melanoma is 3.09 µM; in the assay on SF-539 CNS it was 2.63 µM; in the assay on M14 melanoma, 2.31 µM; with NCI-H226 lung it was 7.83 µM; in the assay on HCC-2998 colon, 9.89 µM; in the assay with MDA-MB-231 breast it was 1.44 µM. In addition, the GI50 is 0.551 µM in the assay on UO-31 renal, 6.5 µM with HOP-62 NSCLC, 1.07 µM in the assay on SNB-75 CNS and 1.78 µM with IGROV1 ovarian. The TGI in the assay with SK-MEL-28 melanoma was > 32.5 µM; with SF-539 CNS it was 15 µM; in the assay on M14 melanoma, > 32.5 µM; in the assay with NCI-H226 lung it was > 32.5 µM; in the assay with HCC-2998 colon, > 32.5 µM; in the assay on MDA-MB-231 breast, > 32.5 µM. For the same compound, the TGI in the assay with UO-31 renal is > 32.5 µM; with HOP-62 NSCLC, > 32.5 µM; in the assay on SNB-75 CNS it was 13.2 µM; in the assay with IGROV1 ovarian, > 32.5 µM.
